Legend:
[1] = system: ATCC HB 9183 antibody (monoclonal antibody, IgG1, produced by hybridoma ATCC HB 9183); test: competitive inhibition enzyme immunoassay (CIEIA) with ATCC HB 9183 culture supernatant; type: binding, BALB/c mice; details: 1:5 dilution of culture supernatant preincubated 1 hour at room temperature with various concentrations of TCDD; linear curve in Figure 3
[2] = system: monoclonal antibodies reactive with 2,3,7,8-TCDD in hybridoma culture supernatants (the 6 of 384 cultures positive by CIEIA); test: competitive inhibition enzyme immunoassay (CIEIA) of hybridoma culture supernatants; type: binding, BALB/c mice; details: culture supernatants preincubated with 1.0 × 10⁻⁴ M 2,3,7,8-TCDD; plates coated with BSA-adipamidoyl,3,7,8-trichlorodibenzo-p-dioxin conjugate; 6 positive cultures; 100 µM

Clc1cc2c(cc1Cl)Oc1cc(Cl)c(Cl)cc1O2 [2,3,7,8-TCDD, 2,3,7,8-tetrachlorodibenzo-p-dioxin]
binding of antibody to free TCDD (CIEIA, Figure 3) [1]: binds directly to free TCDD | inhibition of antibody binding to the solid phase-bound conjugate [2]: at least 50%
